This passage reports IC50 results from US11266640B2, “Polycyclic compound acting as IDO inhibitor and/or IDO-HDAC dual inhibitor” (Hangzhou Innogate Pharma Co., Ltd., priority 2017, dated 2022).

Molecules are shown by their SMILES.

The test addresses T1, IDO (Homo sapiens, UniProt P14902).
T1 construct: endogenous in cells; host or cells: HeLa cells treated with IFNγ
Description: Hela cell-based IDO inhibitory activity test (IFNγ added). The conditions noted are these: Hela cells with IFNγ, 48 hours incubation, OD 480 nm. As to the method: 2. Hela Cell-Based IDO Inhibitory Activity Test Method
The first step: cell plating. Prepare complete medium and mix well. Cell lines that are in good growth state are selected. Remove the cell culture flask from the incubator and check the cell name, media type and cell generation number on the bottle. The medium was discarded, digested with trypsin, and after digestion, the cells were neutralized with serum-containing medium, and the cells were blown to cause the cells to fall off. Pipette the cell suspension into a centrifuge tube and centrifuge at a speed of 800-1000 for 3-5 minutes. Aspirate the cell supernatant from the centrifuge tube. Add an appropriate volume of medium to the tube and gently blister to resuspend the cells. Count using a Vi-Cell XR cytometer. Adjust the cell suspension to the appropriate concentration. The cell suspension was added to a white-well 96-well plate at 80 μl/well according to the schematic below. The second step: preparation and addition of the compound. Compounds were formulated in DMSO at 600 μM and the compounds were diluted in DMSO according to a multiple of the following table to give 6 concentration gradients of the compound. The 200× compound prepared in DMSO was formulated into a 10× dilution solution in proportion to the corresponding cell culture medium. After 24 hours of cell seeding, 10 μL of 10× corresponding compound dilution and 10 μL of 10×IFNγ were added to each well. Incubate for 48 hours in a 37° C. incubator. The third step: detection and analysis. Cell morphology was observed under an inverted microscope. 80 μL of the supernatant was added to a 3894 plate, 10 μL of 6.1 N trichloroacetic acid was added to each well, shaken for 2 minutes, and placed in a 50-degree incubator for 30 minutes. Centrifuge, 2500 rpm for 10 minutes.
Take 70 μL of the supernatant and transfer to a 3635 UV plate, add 70 μL of the reaction solution, and shake for 2 minutes to make the reaction uniform. Use EnSpire (PE) to detect data with an OD of 480 nm. The cell culture plate 3903 was allowed to stand at room temperature for 30 minutes. 100 μL/well of the cell activity detecting reagent was added to the culture plate. Mix on a shaker for 2 minutes to induce cell lysis. The 96-well plate was allowed to stand at room temperature for 10 minutes to stabilize the luminescence signal. Paste the white base film on the bottom of the plate and tested with Flexstation3 plate (the relevant setting is: Illumination, integration time 500 ms). Record the experimental results obtained from the analysis.
The IC50 value is expressed in the following manner: […]

T1 sequence (P14902 whole entry): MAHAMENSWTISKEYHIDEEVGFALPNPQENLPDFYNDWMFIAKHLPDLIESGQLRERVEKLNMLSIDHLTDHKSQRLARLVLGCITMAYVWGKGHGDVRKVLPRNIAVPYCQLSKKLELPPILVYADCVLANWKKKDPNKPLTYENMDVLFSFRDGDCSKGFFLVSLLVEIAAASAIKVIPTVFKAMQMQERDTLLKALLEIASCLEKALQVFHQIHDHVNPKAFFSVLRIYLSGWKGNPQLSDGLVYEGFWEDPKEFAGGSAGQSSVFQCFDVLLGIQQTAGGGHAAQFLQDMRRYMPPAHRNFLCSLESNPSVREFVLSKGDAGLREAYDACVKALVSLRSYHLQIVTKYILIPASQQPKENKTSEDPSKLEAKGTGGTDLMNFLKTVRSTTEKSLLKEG

`O=C(C[C@@H]1C[C@@H]2CC(c3ccnc4ccc(F)cc34)=C[C@@H]2C1)Nc1ccc(Cl)nc1` (racemic) [Compound 62]: the IC50 was at most 5 nM.
`N#Cc1ccc(NC(=O)C[C@@H]2C[C@@H]3CC(c4ccnc5ccc(F)cc45)=C[C@@H]3C2)nc1` (racemic) [Compound 69] registered an IC50 of at most 5 nM.
With `N#Cc1ccc(NC(=O)C[C@@H]2C[C@@H]3CC(c4ccnc5ccc(F)cc45)=C[C@@H]3C2)cn1` (relative stereo) [Compound 101] the figure was 5 to 25 nM; with `C[C@@H](C(=O)Nc1ccc(Cl)cn1)[C@H]1C[C@H]2CC(c3ccnc4ccc(F)cc34)C[C@H]2C1` (single isomer, unassigned) [Compound 26A], at most 5 nM.
The same measure for `C[C@H](C(=O)Nc1ccc(Cl)cn1)[C@H]1C[C@H]2CC(c3ccnc4ccc(F)cc34)C[C@H]2C1` (single isomer, unassigned) [Compound 26B]: at most 5 nM.
With `O=C(Nc1ccc(Cl)cn1)C1C[C@@H]2C[C@H](c3ccnc4ccc(F)cc34)C[C@@H]2C1` (single isomer, unassigned) [Compound 107] the figure was above 100 nM; with `O=C(Nc1ccc(Cl)cn1)C1C[C@@H]2C[C@H](c3ccnc4ccc(F)cc34)C[C@@H]2C1` (single isomer, unassigned) [Compound 108], 5 to 25 nM.
Compound `CC(C(=O)NC1CCOCC1)[C@H]1C[C@H]2C[C@@H](c3ccnc4ccc(F)cc34)C[C@H]2C1` (stereo partly drawn) [Compound 3] yielded an IC50 above 100 nM.
The same measure for `COC(=O)c1ccc(NC(=O)C(C)[C@H]2C[C@H]3C[C@@H](c4ccnc5ccc(F)cc45)C[C@H]3C2)cc1` (stereo partly drawn) [Compound 8]: 5 to 25 nM.
With `O=C(C[C@@H]1C[C@@H]2C[C@H](c3ccnc4ccc(F)cc34)C[C@@H]2C1)Nc1ccc2c(c1)OCC1COCCN21` (stereo partly drawn) [Compound 13], the IC50 was above 100 nM.
The same measure for `O=C(C[C@H]1C[C@H]2CC(c3ccnc4ccc(F)cc34)C[C@H]2C1)Nc1ccc2[nH]ncc2c1` (stereo partly drawn) [Compound 14]: above 100 nM; for `Cn1ncc2cc(NC(=O)C[C@H]3C[C@H]4CC(c5ccnc6ccc(F)cc56)C[C@H]4C3)ccc21` (stereo partly drawn) [Compound 15]: above 100 nM.
With `O=C(C[C@H]1C[C@H]2CC(c3ccnc4ccc(F)cc34)C[C@H]2C1)Nc1ccc2c(c1)OC(F)(F)O2` (stereo partly drawn) [Compound 16] the figure was above 100 nM; with `O=C(C[C@H]1C[C@H]2CC(c3ccnc4ccc(F)cc34)C[C@H]2C1)Nc1ccc(Cl)cn1` (stereo partly drawn) [Compound 17], 5 to 25 nM; with `O=C(C[C@H]1C[C@H]2CC(c3ccnc4ccc(F)cc34)C[C@H]2C1)Nc1ccc(Cl)nc1` (stereo partly drawn) [Compound 18], at most 5 nM.
Consider `C#Cc1ccc(NC(=O)C[C@H]2C[C@H]3CC(c4ccnc5ccc(F)cc45)C[C@H]3C2)cc1` (stereo partly drawn) [Compound 19], for which the IC50 was at most 5 nM.
With `C#Cc1ccc(NC(=O)C[C@@H]2C[C@H]3CC(c4ccnc5ccc(F)cc45)C[C@H]3C2)cc1` (stereo partly drawn) [Compound 20] the figure was at most 5 nM; with `O=C(C[C@@H]1C[C@H]2CC(c3ccnc4ccc(F)cc34)C[C@H]2C1)Nc1ccc(Cl)cn1` (stereo partly drawn) [Compound 21], 5 to 25 nM; with `N#Cc1ccc(NC(=O)C[C@@H]2C[C@H]3CC(c4ccnc5ccc(F)cc45)C[C@H]3C2)cc1` (stereo partly drawn) [Compound 23], at most 5 nM.
With `C#Cc1ccc(NC(=O)C[C@@H]2C[C@H]3CC(c4ccnc5ccc(F)cc45)C[C@H]3C2)cn1` (stereo partly drawn) [Compound 24] the figure was at most 5 nM; with `C#Cc1ccc(NC(=O)C[C@@H]2C[C@H]3CC(c4ccnc5ccc(F)cc45)C[C@H]3C2)nc1` (stereo partly drawn) [Compound 25], at most 5 nM; with `CC(C(=O)Nc1ccc(O)nc1)[C@H]1C[C@H]2C[C@@H](c3ccnc4ccc(F)cc34)C[C@H]2C1` (stereo partly drawn) [Compound 28], above 100 nM.
With `CC(C(=O)Nc1ccc(Cl)nn1)[C@H]1C[C@H]2C[C@@H](c3ccnc4ccc(F)cc34)C[C@H]2C1` (stereo partly drawn) [Compound 29] the figure was 25 to 100 nM; with `CC(C(=O)Nc1cnc(N)nc1)[C@H]1C[C@H]2C[C@@H](c3ccnc4ccc(F)cc34)C[C@H]2C1` (stereo partly drawn) [Compound 30], above 100 nM.
